{"source": "patent US20250262215A1", "about": "“USE OF CYCLIN E1 STATUS AS A PREDICTIVE BIOMARKER FOR TREATING CANCER WITH WEE1 INHIBITORS” (Zeno Management, Inc., priority 2022, published 2025)", "molecules": {"B1": {"name": "XMT1536 (conjugate, chains of the INN, looked up)", "VH": "QVQLVQSGAEVVKPGASVKMSCKASGYTFTGYNIHWVKQAPGQGLEWIGAIYPGNGDTSYKQKFRGRATLTADTSTSTVYMELSSLRSEDSAVYYCARGETARATFAYWGQGTLVTVSS", "VL": "DIQMTQSPSSLSASVGDRVTITCSASQDIGNFLNWYQQKPGKTVKVLIYYTSSLYSGVPSRFSGSGSGTDYTLTISSLQPEDFATYYCQQYSKLPLTFGQGTKLELK", "modifications": "rilsodotin (auristatin) payload"}, "B2": {"name": "ABBV-155 (conjugate, chains of the INN, looked up)", "VH": "EVQLQESGPGLVKPSETLSLTCAVTGYSITSGYSWHWIRQFPGNGLEWMGYIHSSGSTNYNPSLKSRISISRDTSKNQFFLKLSSVTAADTAVYYCAGYDDYFEYWGQGTTVTVSS", "VL": "DIQMTQSPSSLSASVGDRVTITCKASQNVGFNVAWYQQKPGKSPKALIYSASYRYSGVPSRFSGSGSGTDFTLTISSLQPEDFAEYFCQQYNWYPFTFGQGTKLEIK", "modifications": "clezutoclax payload"}}, "key": {"[1]": {"system": "HGSOC cells", "test": "Growth rate inhibition (GR) by CellTiter-Glo and GR calculator", "type": "cell-based", "settings": "for effect on growth rate (GR): relative to untreated control", "from_the_text": "To confirm whether Cyclin E1 expression levels were responsible for increased sensitivity to Azenosertib, OV90, Kuramochi and COV362 cells (low endogenous expression levels of Cyclin E1) were transduced with a lentiviral vector carrying the CCNE1 gene or with an empty vector control. Stable OV90, Kuramochi and COV362 cell lines were established by puromycin selection. Cyclin E1 overexpression in the stable OV90 cell line compared to empty vector control cells was confirmed by Western blotting (FIG. 1C). […] Sensitization of HGSOC cell lines by overexpression of Cyclin E1 to Azenosertib was assessed by plotting the growth-rate (GR) inhibition in FIG. 1D. It was observed that Cyclin E1 overexpression sensitized HGSOC cell lines to Azenosertib by further decreasing growth rate and cell viability compared to control empty vector cell lines (FIG. 1D). GR50 and IC50 values of Azenosertib were determined by CellTiter-Glo (CTG) assay and the GR calculator.\nHGSOC cells were assessed for growth rate inhibition (GR) in the presence of Azenosertib (relative to an untreated control). GR value is independent of cell division rate and was determined as described in Hafner et al. (Curr. Protoc. Chem. Biol. 9, 96-116 (2017)). HGSOC cells with high Cyclin E1 protein expression were amongst the most sensitive to Azenosertib. […] (FIG. 2). […] In Cyclin E1-low ovarian cancer cell lines, overexpression of Cyclin E1 by lentivirus increased sensitivity to Azenosertib."}, "[2]": {"system": "SKOV3 cells (non-CCNE1-amplified, wild-type CCNE1 CN=2)", "test": "SKOV3 cell line-derived xenograft (CDX), tumor growth inhibition", "type": "in vivo, mice", "settings": "80 mg/kg Azenosertib daily", "description": "Mice were inoculated with SKOV3 cells (non-CCNE1-amplified, wild-type CCNE1 CN=2) on the right flank with the single cell suspension of 95% viable tumor cells (1×10^7) in 100 μL McCoy's 5a and Matrigel mixture (1:1 ratio) without serum for the tumor development. Animals were randomized and treated with vehicle (20% HP-β-CD) or 80 mg/kg Azenosertib daily for 21 days when the mean tumor volume reached 215 mm^3. Tumor growth inhibition (TGI) was calculated using the following equation TGI=(1−(Td−T0)/(Cd−C0))×100%. Td and Cd are the mean tumor volumes of the treated and control animals, and T0 and C0 are the mean tumor volumes of the treated and control animals at the start of the experiment. […] (FIGS. 6A and 6B)."}, "[3]": {"system": "OVCAR8 (non=CCNE1-amplified) CDX", "test": "OVCAR8 CDX model, tumor growth inhibition", "type": "in vivo, mice", "settings": "80 mg/kg Azenosertib daily for 39 days"}, "[4]": {"system": "HCC1806 human triple negative breast cancer cells (CCNE1-amplified, CN=7)", "test": "HCC1806 xenograft, tumor growth", "type": "in vivo, BALB/c nude mice", "settings": "80 mg/kg Azenosertib daily; after 28 days", "description": "1×10^6 HCC1806 human triple negative breast cancer cells (CCNE1-amplified, CN=7) were inoculated into the right flank of ten 6-8-week-old female BALB/c nude mice. Animals were randomized and treatment started when the mean tumor volume reached 155 mm^3. Animals were treated with vehicle (20% HP-β-CD) or 80 mg/kg Azenosertib daily and tumor volumes and body weight were measured twice weekly."}, "[5]": {"system": "OVCAR-3 cells (CCNE1-amplified, CN=14)", "test": "OVCAR-3 xenograft, tumor growth inhibition", "type": "in vivo, NOD/SCID mice", "settings": "80 mg/kg Azenosertib daily; after 28 days", "description": "6-8 weeks old female NOD/SCID mice were inoculated with OVCAR-3 cells (CCNE1-amplified, CN=14) into the right flank. Animals were randomized and treated with […] (20% HP-β-CD) or 80 mg/kg Azenosertib daily once the mean tumor volume reached 111 mm^3. Tumor volumes and body weight were measured twice weekly. […] Reduction in tumor growth was also observed in animals treated with 40 mg/kg Azenosertib daily, 60 mg/kg Azenosertib daily, 80 mg/kg Azenosertib daily. (FIGS. 8C and 8D)."}, "[6]": {"system": "A2780 non-CCNE1-amplified (CN = 2) (Cyclin E1-low)", "test": "Azenosertib and paclitaxel combination study, A2780 tumors", "type": "in vivo, mice", "settings": "Azenosertib 60 mg/kg QD and/or paclitaxel 10 mg/kg, schedules of Table 2", "from_the_text": "(§1) To evaluate the effects of Azenosertib in combination with paclitaxel, mice were inoculated with A 2780 (non-CCNE1-amplified, CN=2) (FIGS. 10A and 10B) or OVCAR3 (CCNE1 amplified, CN=14) (FIG. 11A and FIG. 11B) cells. Animals were randomized and treated as summarized in Table 2 once the mean tumor volume reached a specified size."}, "[7]": {"system": "OVCAR3 CCNE1-amplified (CN = 14) (Cyclin E1-high)", "test": "Azenosertib and paclitaxel combination study, OVCAR3 tumors", "type": "in vivo, mice", "settings": "Azenosertib 60 mg/kg QD × 28 and/or paclitaxel 5 mg/kg 4 days on, 3 days off × 4 cycles", "from_the_text": "as §1"}, "[8]": {"system": "CCNE1-amplified platinum-resistant ovarian cancer", "test": "Azenosertib in one heavily pre-treated subject (Example 10)", "type": "in vivo, human", "settings": "at least 400 mg once a day, 5 days on, two off days, for 11 months", "description": "The subject was selected to have CCNE1-amplified status (confirmed by Foundation assay) and was administered Azenosertib in accordance with an intermittent dosing schedule of at least 400 mg Azenosertib once a day for five consecutive days, followed by two off days for 11 months. The subject is a person who received 10 prior lines of therapy: (1) Avelumab (SD); (2) Doxorubicin Liposomal (PD); (3) Topotecan/bevacizumab (PD); (4) Cyclophosphamide/bevacizumab (unk); (5) XMT1536 (NaPi2b ADC) (PR); (6) APG115 (MDM2 inh)/Pembrolizumab (SD); (7) ABBV-155 ([…] ADC) (PD); (8) NC 318 (Siglec-15 mA B) (SD); (9) SM 08502 (CLK inhibitor) (PD); (10) NBMBMX (HDAC8 inh) (SD)."}, "[9]": {"system": "SKOV3, OVCAR3 and HCC1806 tumors", "test": "Tolerability in tumor-bearing mice dosed orally every day (Example 3)", "type": "in vivo, NOD/SCID mice or BALB/c nude mice", "description": "NOD/SCID mice (SKOV3-Cyclin E1-low and OVCAR3-Cyclin E1-high) or BALB/c nude mice (HCC1806) bearing corresponding tumors were dosed orally every day for the time as shown in FIGS. 5A and 8A. Treatment was well-tolerated and the change in tumor volume was plotted against time of administration. Target engagement of Azenosertib (decreased pCDK1) and γH2AX were examined by IHC in tumors after 12 hrs of Azenosertib treatment in SKOV3-Cyclin E1-low and OVCAR3-Cyclin E1-high cells. Y-axis represents the sum of H-score evaluated by 3 independent pathologists (FIGS. 4B and 4C). Replication stress markers pCHK1 and γH2AX were determined by Western Blot in OVCAR3 tumor samples with or without Azenosertib treatment for 12 hrs (FIG. 4D)."}, "[10]": {"system": "CCNE1-amplified platinum-resistant ovarian cancer", "set-up": "key: CR: complete response; PR: partial response; SD: stable disease; PD: progressive disease; NE: not evaluable; NA: not available", "settings": "one subject, before Azenosertib; cited from earlier work"}}}
{"molecule": "C=CCn1c(=O)c2cnc(Nc3ccc(N4CCN(C)CC4)cc3)nc2n1-c1ccc2c(n1)[C@@](O)(CC)CC2", "note": "[Azenosertib]", "values": [{"measurement": "effect on growth rate (GR)", "setting": "[1]; COV362, JHOMI, OAW28, OVCAR3, CAOV3, and OVCAR4 cells", "value": "cytotoxic effect"}, {"measurement": "effect on growth rate (GR)", "setting": "[1]; ES2 and TYK-nu cells", "value": "cytotoxic effect"}, {"measurement": "effect on growth rate (GR)", "setting": "[1]; OV90 and Kuramochi cells", "value": "inhibitory effect"}, {"measurement": "GRmax", "setting": "[1]; ovarian cancer cell lines overexpressing Cyclin E1 protein (Cyclin E1-high)", "value": "< −0.5"}, {"measurement": "average tumor growth inhibition TGI(80 mpk, Day 28)", "setting": "[2]", "value": 51.5, "unit": "%"}, {"measurement": "average tumor growth inhibition TGI(80 mpk, Day 28)", "setting": "[3]", "value": 52.8, "unit": "%"}, {"measurement": "reduced tumor growth vs vehicle", "setting": "[4]", "value": 63.5, "unit": "%"}, {"measurement": "reduced tumor growth TGI(80 mpk, Day 28)", "setting": "[5]", "value": 88, "unit": "%"}, {"measurement": "Tumor Growth Inhibition", "setting": "[6]", "value": 34, "unit": "%"}, {"measurement": "Tumor Growth Inhibition", "setting": "[7]", "value": 68, "unit": "%"}, {"measurement": "durable cPR", "setting": "[8]", "value": "−71", "unit": "%"}, {"measurement": "tolerability of treatment", "setting": "[9]", "value": "well-tolerated"}]}
{"molecule": "CC(=O)O[C@H]1C(=O)[C@@]2(C)[C@H]([C@H](OC(=O)c3ccccc3)[C@]3(O)C[C@H](OC(=O)[C@H](O)[C@@H](NC(=O)c4ccccc4)c4ccccc4)C(C)=C1C3(C)C)[C@]1(OC(C)=O)CO[C@@H]1C[C@@H]2O", "note": "[Paclitaxel, paclitaxel, reference compound]", "values": [{"measurement": "Tumor Growth Inhibition", "setting": "[6]", "value": 46, "unit": "%"}, {"measurement": "Tumor Growth Inhibition", "setting": "[7]", "value": 74, "unit": "%"}]}
{"molecule": "CN1CCN(c2cc(C(=O)Nc3cc4cc(-c5cnn(C)c5)ccc4cn3)ccn2)CC1", "note": "[SM 08502, reference compound]", "values": [{"measurement": "response to prior line of therapy", "setting": "[10]", "value": "PD"}]}
{"molecule": "Avelumab: prior line of therapy of the subject [reference compound]", "values": [{"measurement": "response to prior line of therapy", "setting": "[10]", "value": "SD"}]}
{"molecule": "B1", "values": [{"measurement": "response to prior line of therapy", "setting": "[10]", "value": "PR"}]}
{"molecule": "B2", "values": [{"measurement": "response to prior line of therapy", "setting": "[10]", "value": "PD"}]}
